Test results: PMC9299702, “Maytansinol Derivatives: Side Reactions as a Chance for New Tubulin Binders” (Chemistry (Weinheim an Der Bergstrasse, Germany), 2021)
Where two headings read alike, the source gives them in different places.

Columns and labels:
tubulin [1] = target: T1, tubulin (Bos taurus, UniProt Q6B856); test: Inhibition of tubulin assembly (turbidity time courses); format: biochemical, calf; conditions: 25 μM tubulin in GAB, 27.5 μM compound, stoichiometric ratio
T1 construct: Purified calf brain tubulin and chemicals were obtained as previously described; from tissue; host or cells: calf brain

A549 cells [2] = test: Cytotoxicity (antiproliferation assay) in A549; format: cell-based, human
A2780 cells = test: Cytotoxicity (antiproliferation assay) in A2780; format: cell-based, human
A2780AD cells = test: Cytotoxicity (antiproliferation assay) in A2780AD (pGp overexpressing); format: cell-based, human; conditions: for IC50: read-out: IC50 A2780AD; for R/S (resistance index): A2780AD versus A2780
[3] = target: T2, maytansine site of tubulin (Bos taurus, UniProt Q6B856); test: biochemical; format: binding, calf
T2 construct: Purified calf brain tubulin and chemicals were obtained as previously described; from tissue; host or cells: calf brain

A549 cells [4] = test: Effects on cellular microtubules by immunofluorescence microscopy; format: cell-based, human; conditions: fluorescence microscopy; for concentration at which the microtubule destabilizing effect is observed in interphasic cells: interphase; for concentration at which the microtubule destabilizing effect is observed in mitotic cells: mitosis
Excerpt: To do so, we performed fluorescence microscopy using A549 cells.
The effect of these compounds on the microtubule network and mitotic spindle was characterized in A549 tumor cells by fluorescence microscopy. […] Cells were immunostained for A)–I) α‐tubulin or A’)–I’) DNA, and A’’)–I’’) the images obtained were merged (tubulin in green and DNA in magenta). A)–A’’) Interphase cell treated with DMSO; notice the regular microtubule network evenly distributed in the cytoplasm. B)–B’’) Control metaphase cell with a normally distributed bipolar mitotic spindle in which all chromosomes are positioned in the metaphase plate. […] All images are shown at the same scale; scale bar: 10 μm.
In interphase the microtubule network covers the whole cytoplasm, while in dividing cells during metaphase there are regular bipolar spindles that allow the correct positioning and segregation of chromosomes in the subsequent division steps.
Indirect immunofluorescence images were obtained using A549 cells plated at a density of 130,000 cells/ml onto 12mm

tubulin [5] = test system: tubulin; parameters: method as in PMID 21043240; conditions: compared with maytansine; cited from earlier work
[6] = Homo sapiens, A549, read-out: IC50 A549
[7] = Homo sapiens, A2780, read-out: IC50 A2780
[8] = competition against Fc maytansine
[9] = competition against Fc maytansine, read-out: K d
[10] = Homo sapiens, A549 cell line, read-out: IC50 A549
[11] = Homo sapiens, A2780 cell line, read-out: IC50 A2780
[12] = Homo sapiens, A2780AD cell line, pGp overexpressing
[13] = A549 cell line, read-out: IC50 A549
[14] = A2780 cell line, read-out: IC50 A2780
[15] = A2780AD cell line, pGp overexpressing

T2 sequence (Q6B856 whole entry): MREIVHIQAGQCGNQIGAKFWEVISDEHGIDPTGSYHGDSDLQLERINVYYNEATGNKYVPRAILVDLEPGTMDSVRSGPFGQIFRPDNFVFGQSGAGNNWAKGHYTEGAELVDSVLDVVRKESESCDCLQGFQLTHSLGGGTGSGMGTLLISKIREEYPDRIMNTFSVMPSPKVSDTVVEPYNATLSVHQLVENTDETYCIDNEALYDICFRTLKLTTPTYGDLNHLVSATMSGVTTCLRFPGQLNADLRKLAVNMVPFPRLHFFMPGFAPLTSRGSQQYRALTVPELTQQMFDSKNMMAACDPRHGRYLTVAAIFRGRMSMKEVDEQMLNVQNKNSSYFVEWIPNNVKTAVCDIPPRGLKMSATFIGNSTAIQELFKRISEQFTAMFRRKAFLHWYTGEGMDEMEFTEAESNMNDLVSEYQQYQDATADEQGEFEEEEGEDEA
T2 sequence (P81947 whole entry partner): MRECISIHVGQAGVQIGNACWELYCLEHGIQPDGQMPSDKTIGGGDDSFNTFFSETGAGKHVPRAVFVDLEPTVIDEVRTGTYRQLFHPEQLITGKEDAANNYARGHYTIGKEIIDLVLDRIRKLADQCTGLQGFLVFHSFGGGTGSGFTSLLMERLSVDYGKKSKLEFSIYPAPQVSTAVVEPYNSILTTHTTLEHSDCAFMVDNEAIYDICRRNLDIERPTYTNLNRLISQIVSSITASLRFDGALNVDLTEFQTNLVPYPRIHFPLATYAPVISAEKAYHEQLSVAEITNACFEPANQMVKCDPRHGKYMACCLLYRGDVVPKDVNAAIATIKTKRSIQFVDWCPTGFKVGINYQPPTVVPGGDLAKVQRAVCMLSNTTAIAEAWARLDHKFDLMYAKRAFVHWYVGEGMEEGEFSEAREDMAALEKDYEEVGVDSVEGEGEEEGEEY
T1 sequence (Q6B856 whole entry): as the sequence (Q6B856 whole entry) above
T1 sequence (P81947 whole entry partner): as the sequence (P81947 whole entry partner) above

Compound | Inhibition of tubulin assembly (tubulin [1]) | IC50 (A549 cells [2]; [6]) [nM] | IC50 (A2780 cells; [7]) [nM] | IC50 (A2780AD cells; Homo sapiens, A2780AD) [nM] | Mean K b [3, 8] | Kd [3, 9] [nM] | IC50 (A549 cells [2]; [10]) [nM] | concentration at which the microtubule destabilizing effect is observed in interphasic cells (A549 cells [4]) [nM] | concentration at which the microtubule destabilizing effect is observed in mitotic cells (A549 cells [4]) [nM] | IC50 (A2780 cells; [11]) [nM] | IC50 (A2780AD cells; [12]) [nM] | Kd [3] [nM] | IC50 (A549 cells [2]; [13]) [nM] | IC50 (A2780 cells; [14]) [nM] | IC50 (A2780AD cells; [15]) [nM] | R/S (resistance index) (A2780AD cells) | inhibitory activity on tubulin polymerization (tubulin [5])
COc1cc2cc(c1Cl)N(C)C(=O)CC(O)C1(C)OC1C(C)C=CC(=O)C(OC)C=CC=C(C)C2 (centres unmarked) [Compound 2] | weak inhibition | 15 ± 2 | 9.64 ± 0.97 | 981 ± 201 | 1.42±0.08×10^6 M^−1 | 720 ± 50 | – | – | – | – | – | – | – | – | – | – | –
COc1cc2cc(c1Cl)N(C)C(=O)C[C@H](OC(=O)[C@H](C)N(C)C(C)=O)[C@]1(C)O[C@H]1[C@H](C)[C@@H]1C[C@@](O)(NC(=O)O1)[C@H](OC)/C=C/C=C(\C)C2 [1 a, Maytansine, reference compound] | completely abolishes tubulin polymerization | – | – | – | 9.0±1.3×10^7 M^−1 | – | 0.278 ± 0.04 | 5 | 5 | 0.31 ± 0.02 | 19.5 ± 1.14 | 14 ± 2 | – | – | – | – | –
COc1cc2cc(c1Cl)N(C)C(=O)C[C@H](OC(=O)c1ccccc1)[C@]1(C)O[C@H]1[C@H](C)[C@@H]1C[C@@](O)(NC(=O)O1)[C@H](OC)/C=C/C=C(\C)C2 [4 a] | – | – | – | – | 2.0±0.×10^7 M^−1 | 51 ± 3 | – | 10 | 5 | – | – | – | 0.24 ± 0.03 | 0.11 ± 0.01 | 11 ± 1 | 100 | –
COc1cc2cc(c1Cl)N(C)C(=O)CC(OC(=O)c1ccccc1)C1(C)OC1C(C)C1C=C(NC(=O)O1)C(OC)C=CC=C(C)C2 (centres unmarked) [5 a] | strong inhibitors that completely abolished microtubule assembly | – | – | – | 9.2±0.3×10^5 M^−1 | 1090 ± 40 | – | – | – | – | – | – | > 570 | 338 ± 4.65 | 2630 ± 187 | – | –
C#CCCCCC(=O)OC1CC(=O)N(C)c2cc(cc(OC)c2Cl)CC(C)=CC=CC(OC)C2(O)CC(OC(=O)N2)C(C)C2OC12C (centres unmarked) [4 c] | – | – | – | – | 5.4±0.5×10^7 M^−1 | 20 ± 2 | – | – | – | – | – | – | 0.07 ± 0.008 | 0.033 ± 0.003 | 4.7 ± 0.6 | 142 | –
COc1cc2cc(c1Cl)N(C)C(=O)CC(OC(C)=O)C1(C)OC1C(C)C1C=C(NC(=O)O1)C(OC)C=CC=C(C)C2 (centres unmarked) [5 b] | strong inhibitors that completely abolished microtubule assembly | – | – | – | 1.17±0.04×10^6 M^−1 | 860 ± 30 | – | – | – | – | – | – | 190 ± 40 | 130 ± 20 | > 6160 | – | –
C#CCCCCC(=O)OC1CC(=O)N(C)c2cc(cc(OC)c2Cl)CC(C)=CC=CC(OC)C2=CC(OC(=O)N2)C(C)C2OC12C (centres unmarked) [5 c] | mild | – | – | – | 5.6±0.4×10^5 M^−1 | 1800 ± 120 | – | – | – | – | – | – | 320 ± 40 | 225 ± 15 | > 7960 | – | –
COc1cc2cc(c1Cl)N(C)C(=O)CC(O)C1(C)OC1C(C)C1C=C(NC(=O)O1)C(OC)C=CC=C(C)C2 (centres unmarked) [Compound 3] | mild | 28 ± 2 | 74 ± 4 | > 19700 | 1.20±0.03×10^6 M^−1 | 830 ± 20 | – | – | – | – | – | – | – | – | – | – | –
COc1cc2cc(c1Cl)N(C)C(=O)CC(O)C1(C)OC1C(C)C1CC(O)(NC(=O)O1)C(OC)/C=C/C=C(\C)C2 (centres unmarked) [1 b, Maytansinol] | noticeable effect at stoichiometric concentrations | – | – | – | 1.30±0.06×10^6 M^−1 | – | 60 ± 3 | 100 | 50 | 23.8 ± 1.65 | 1460 ± 148 | 780 ± 40 | – | – | – | – | weaker inhibitory activity on tubulin polymerization than maytansine
COc1cc2cc(c1Cl)N(C)C(=O)CC(OC(=O)c1ccccc1)C1(C)OC1C(C)C1C=C(C(OC)C=CC=C(C)C2)N(C(=O)c2ccccc2)C(=O)O1 (centres unmarked) [7 a] | mild | – | – | – | 5.0±0.5×10^5 M^−1 | 2000 ± 200 | – | – | – | – | – | – | 47 ± 6 | – | 3500 ± 320 | – | –
COc1cc2cc(c1Cl)N(C)C(=O)CC(OC(C)=O)C1(C)OC1C(C)C1CC(O)(NC(=O)O1)C(OC)C=CC=C(C)C2 (centres unmarked) [4 b] | – | – | – | – | 9±1×10^7 M^−1 | 11 ± 1 | – | – | – | – | – | – | 1.2 ± 0.3 | 0.25 ± 0.01 | 20 ± 1 | 80 | –
COc1cc2cc(c1Cl)N(C)C(=O)CC(O)C1(C)OC1C(C)C1C=C(C(OC)C=CC=C(C)C2)N(C(=O)c2ccccc2)C(=O)O1 (centres unmarked) [6 a] | strong inhibitors that completely abolished microtubule assembly | – | – | – | 6±2×10^5 M^−1 | – | – | – | – | – | – | – | > 1030 | 2090 ± 99 | 13500 ± 623 | – | –
